Experimental data taken from patent US10611730B2, “Benzimidazolone and benzothiazolone compounds and their use as AMPA receptor modulators” (Janssen Pharmaceutica NV, priority 2015, dated 2020).

What follows are compounds tested against TARP γ8 dependent AMPA receptor (GluA1o-g8 fusion channel) (Homo sapiens (Human), UniProt P42261+Q8WXS5) (assay: Calcium flux assay (FLIPR), HEK293 cells expressing GRIA1o-CACNG8 fusion). Settings: inhibition of calcium flux after 15 μM glutamate.
Type: cell-based
Source text: This assay was used to test compounds for their ability to inhibit TARP γ8 dependent AMPA receptor activity.
An in vitro assay was used to determine the potency of test compounds as inhibitors of the glutamate response of the channel formed by GluA1o-g8. To ensure a 1:1 stoichiometry of GluA1o and g8 subunits in the expressed channel, a fusion of the cDNAs for GRIA1o and CACNG8 was used. […] A clonal cell line in HEK293 cells stably expressing this construct, with a geneticin selection marker, was generated for use in this assay. Cell expressing the GRIAlo-CACNG8 fusion construct were grown in a monolayer in 96- or 384-well microtiter plates. […] The cells were then loaded with a calcium-sensitive dye (Calcium-5 or Calcium-6, Molecular Devices) and the test compounds at a range of concentrations.
The fluorescence in each well was normalized to the fluorescence of negative and positive control wells. […] The responses to glutamate as functions of the test compound concentrations were fitted to a four-parameter logistic function. The fitted parameter corresponding to the midpoint was taken to be the potency of inhibition of the compound.

TARP γ8 dependent AMPA receptor (GluA1o-g8 fusion channel), sequence (P42261 other isoform, or with tags, fused parts or gaps): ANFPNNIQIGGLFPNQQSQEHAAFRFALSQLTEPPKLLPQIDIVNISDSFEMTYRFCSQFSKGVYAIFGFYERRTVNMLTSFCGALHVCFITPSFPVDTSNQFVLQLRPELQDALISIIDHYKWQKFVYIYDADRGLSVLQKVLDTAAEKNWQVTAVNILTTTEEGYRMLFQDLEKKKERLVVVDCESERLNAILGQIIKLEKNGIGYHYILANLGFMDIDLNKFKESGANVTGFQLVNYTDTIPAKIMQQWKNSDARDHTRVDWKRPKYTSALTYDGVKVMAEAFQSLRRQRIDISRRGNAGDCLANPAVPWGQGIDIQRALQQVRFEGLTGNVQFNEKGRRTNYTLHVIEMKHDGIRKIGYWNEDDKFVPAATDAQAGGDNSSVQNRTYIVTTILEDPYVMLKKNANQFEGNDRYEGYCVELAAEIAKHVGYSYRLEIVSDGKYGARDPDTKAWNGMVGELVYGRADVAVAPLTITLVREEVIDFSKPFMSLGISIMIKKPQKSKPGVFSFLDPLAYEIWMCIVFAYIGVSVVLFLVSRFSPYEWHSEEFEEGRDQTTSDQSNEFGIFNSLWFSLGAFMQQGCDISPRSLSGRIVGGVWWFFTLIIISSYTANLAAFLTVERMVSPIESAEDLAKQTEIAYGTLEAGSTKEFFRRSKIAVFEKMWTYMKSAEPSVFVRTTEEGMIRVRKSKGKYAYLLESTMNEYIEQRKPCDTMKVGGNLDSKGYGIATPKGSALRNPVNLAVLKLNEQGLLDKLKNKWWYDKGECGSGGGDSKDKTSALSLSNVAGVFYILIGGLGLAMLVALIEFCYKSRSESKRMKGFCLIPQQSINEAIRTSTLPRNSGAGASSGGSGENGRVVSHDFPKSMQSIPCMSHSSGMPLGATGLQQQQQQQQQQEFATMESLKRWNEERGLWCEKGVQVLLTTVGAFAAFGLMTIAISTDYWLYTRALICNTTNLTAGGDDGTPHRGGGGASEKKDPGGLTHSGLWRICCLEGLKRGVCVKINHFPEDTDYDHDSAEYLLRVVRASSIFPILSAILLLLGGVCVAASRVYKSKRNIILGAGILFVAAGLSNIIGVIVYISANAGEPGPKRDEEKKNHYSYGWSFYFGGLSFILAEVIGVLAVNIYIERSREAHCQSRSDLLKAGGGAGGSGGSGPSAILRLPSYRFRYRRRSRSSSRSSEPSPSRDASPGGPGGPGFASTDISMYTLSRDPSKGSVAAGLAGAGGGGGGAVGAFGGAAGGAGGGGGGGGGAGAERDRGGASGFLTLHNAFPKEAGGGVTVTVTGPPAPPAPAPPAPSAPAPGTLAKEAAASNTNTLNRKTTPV

| SMILES | GluR1-γ8 pIC50 |
| --- | --- |
| O=c1[nH]c2ccc(-c3c(Cl)cccc3OC(F)(F)F)cc2s1 [Example 76, 6-[2-Chloro-6-(trifluoromethoxy)phenyl]-3H-1,3-benzothiazol-2-one] | 8.6 |

Same assay, conditions: inhibition of calcium flux after 15 μM glutamate, read-out: GluR1-γ8 pIC50 (converted)

| SMILES | IC50 |
| --- | --- |
| Cc1c(-c2ccc3[nH]c(=O)[nH]c3c2)cccc1-c1noc(C2CC2)n1 [Example 73, 5-[3-(5-Cyclopropyl-1,2,4-oxadiazol-3-yl)-2-methyl-phenyl]-1,3-dihydrobenzimidazol-2-one] | 31.6 nM |
| Cc1c(-c2ccc3[nH]c(=O)sc3c2)cccc1-c1noc(C2CC2)n1 [Example 74, 6-[3-(5-Cyclopropyl-1,2,4-oxadiazol-3-yl)-2-methyl-phenyl]-3H-1,3-benzothiazol-2-one] | 3980 nM |
| Cc1c(-c2ccc3[nH]c(=O)[nH]c3c2)cccc1-c1noc(-c2ccncc2)n1 [Example 75, 5-[2-Methyl-3-[5-(4-pyridyl)-1,2,4-oxadiazol-3-yl]phenyl]-1,3-dihydrobenzimidazol-2-one] | 20 nM |
| COc1cccc(OC(C)C)c1-c1ccc2[nH]c(=O)sc2c1 [Example 77, 6-(2-Isopropoxy-6-methoxy-phenyl)-3H-1,3-benzothiazol-2-one] | 12.6 nM |
| CNC(=O)Cc1c(-c2ccc3[nH]c(=O)[nH]c3c2)cccc1C(F)(F)F [Example 78, N-Methyl-2-[2-(2-oxo-1,3-dihydrobenzimidazol-5-yl)-6-(trifluoromethyl)phenyl] acetamide] | 200 nM |
| Cc1c(C(=O)Nc2ccccc2)cccc1-c1ccc2[nH]c(=O)[nH]c2c1 [Example 79, 2-Methyl-3-(2-oxo-1,3-dihydrobenzimidazol-5-yl)-N-phenyl-benzamide] | 794 nM |
| Cc1c(C(=O)NC2CC2)cccc1-c1ccc2[nH]c(=O)[nH]c2c1 [Example 80, N-Cyclopropyl-2-methyl-3-(2-oxo-1,3-dihydrobenzimidazol-5-yl)benzamide] | 3980 nM |
| Cc1c(C(=O)N(C)C)cccc1-c1ccc2[nH]c(=O)[nH]c2c1 [Example 81, N,N,2-Trimethyl-3-(2-oxo-1,3-dihydrobenzimidazol-5-yl)benzamide] | 3160 nM |
| Cc1c(C(=O)N2CCOCC2)cccc1-c1ccc2[nH]c(=O)[nH]c2c1 [Example 82, 5-[2-Methyl-3-(morpholine-4-carbonyl)phenyl]-1,3-dihydrobenzimidazol-2-one] | 5010 nM |
| O=C(Nc1ccccc1)c1ccc(Cl)c(-c2ccc3[nH]c(=O)[nH]c3c2)c1 [Example 83, 4-Chloro-3-(2-oxo-1,3-dihydrobenzimidazol-5-yl)-N-phenyl-benzamide] | 2510 nM |
| O=C(c1ccc(Cl)c(-c2ccc3[nH]c(=O)[nH]c3c2)c1)N1CCCC1 [Example 84, 5-[2-Chloro-5-(pyrrolidine-1-carbonyl)phenyl]-1,3-dihydrobenzimidazol-2-one] | 7940 nM |
| O=C(c1ccc(Cl)c(-c2ccc3[nH]c(=O)[nH]c3c2)c1)N1CCCCC1 [Example 85, 5-[2-Chloro-5-(piperidine-1-carbonyl)phenyl]-1,3-dihydrobenzimidazol-2-one] | 5010 nM |
| O=c1[nH]c2ccc(-c3c(Cl)cccc3NCc3ccco3)cc2[nH]1 [Example 86, 5-[2-Chloro-6-(2-furylmethylamino)phenyl]-1,3-dihydrobenzimidazol-2-one] | 158 nM |
| O=c1[nH]c2ccc(-c3c(Cl)cccc3NCc3ccoc3)cc2[nH]1 [Example 87, 5-[2-Chloro-6-(3-furylmethylamino)phenyl]-1,3-dihydrobenzimidazol-2-one] | 126 nM |
| CC(C)Oc1cccc(OC(F)(F)F)c1-c1ccc2[nH]c(=O)[nH]c2c1 [Example 88, 5-[2-Isopropoxy-6-(trifluoromethoxy)phenyl]-1,3-dihydrobenzimidazol-2-one] | 7.94 nM |
| O=c1[nH]c2ccc(-c3c(OCC4CC4)cccc3OC(F)(F)F)cc2[nH]1 [Example 89, 5-[2-(Cyclopropylmethoxy)-6-(trifluoromethoxy)phenyl]-1,3-dihydrobenzimidazol-2-one] | 3.98 nM |

| SMILES | IC50 |
| --- | --- |
| O=c1[nH]c2ccc(-c3c(Cl)cccc3OC3CC3)cc2[nH]1 [Example 90, 5-[2-Chloro-6-(cyclopropoxy)phenyl]-1,3-dihydrobenzimidazol-2-one] | 251 nM |
| CC(C)Oc1cccc(Cl)c1-c1ccc2[nH]c(=O)[nH]c2c1 [Example 91, 5-(2-Chloro-6-isopropoxy-phenyl)-1,3-dihydrobenzimidazol-2-one] | 79.4 nM |
| O=c1[nH]c2ccc(-c3c(Cl)cccc3OCC3CC3)cc2[nH]1 [Example 92, 5-[2-Chloro-6-(cyclopropylmethoxy)phenyl]-1,3-dihydrobenzimidazol-2-one] | 10 nM |
| O=c1[nH]c2ccc(-c3c(Cl)cccc3OC(F)F)cc2[nH]1 [Example 94, 5-[2-Chloro-6-(difluoromethoxy)phenyl]-1,3-dihydrobenzimidazol-2-one] | 31.6 nM |
| O=c1[nH]c2ccc(-c3c(Cl)cccc3OCC(F)(F)F)cc2[nH]1 [Example 95, 5-[2-Chloro-6-(2,2,2-trifluoroethoxy)phenyl]-1,3-dihydrobenzimidazol-2-one] | 50.1 nM |
| O=c1[nH]c2ccc(-c3c(Cl)cccc3OCC(F)F)cc2[nH]1 [Example 96, 5-[2-Chloro-6-(2,2-difluoroethoxy)phenyl]-1,3-dihydrobenzimidazol-2-one] | 63.1 nM |
| N#CCOc1cccc(Cl)c1-c1ccc2[nH]c(=O)[nH]c2c1 [Example 97, 2-[3-Chloro-2-(2-oxo-1,3-dihydrobenzimidazol-5-yl)phenoxy]acetonitrile] | 316 nM |
| CC(C)(C)COc1cccc(Cl)c1-c1ccc2[nH]c(=O)[nH]c2c1 [Example 98, 5-[2-Chloro-6-(2,2-dimethylpropoxy)phenyl]-1,3-dihydrobenzimidazol-2-one] | 50.1 nM |
| O=c1[nH]c2ccc(-c3c(Cl)cccc3OCc3ccccc3)cc2[nH]1 [Example 99, 5-(2-Benzyloxy-6-chloro-phenyl)-1,3-dihydrobenzimidazol-2-one] | 63.1 nM |
| CC(C)(C)OC(=O)N1CC(Oc2cccc(Cl)c2-c2ccc3[nH]c(=O)[nH]c3c2)C1 [Example 100, tert-Butyl 3-[3-chloro-2-(2-oxo-1,3-dihydrobenzimidazol-5-yl)phenoxy]azetidine-1-carboxylate] | 316 nM |
| O=c1[nH]c2ccc(-c3c(Cl)cccc3Oc3cncs3)cc2[nH]1 [Example 101, 5-(2-Chloro-6-thiazol-5-yloxy-phenyl)-1,3-dihydrobenzimidazol-2-one] | 316 nM |
| COc1cccc(OCC(F)F)c1-c1ccc2[nH]c(=O)[nH]c2c1 [Example 102, 5-[2-(2,2-Difluoroethoxy)-6-methoxy-phenyl]-1,3-dihydrobenzimidazol-2-one] | 398 nM |
| COc1cccc(OCC(F)(F)F)c1-c1ccc2[nH]c(=O)[nH]c2c1 [Example 103, 5-[2-Methoxy-6-(2,2,2-trifluoroethoxy)phenyl]-1,3-dihydrobenzimidazol-2-one] | 398 nM |
| COc1cccc(OCC(C)(C)C)c1-c1ccc2[nH]c(=O)[nH]c2c1 [Example 104, 5-[2-(2,2-Dimethylpropoxy)-6-methoxy-phenyl]-1,3-dihydrobenzimidazol-2-one] | 100 nM |
| COc1cccc(OCc2ccccc2)c1-c1ccc2[nH]c(=O)[nH]c2c1 [Example 105, 5-(2-Benzyloxy-6-methoxy-phenyl)-1,3-dihydrobenzimidazol-2-one] | 39.8 nM |
| COc1cccc(OCc2ccc(F)cc2)c1-c1ccc2[nH]c(=O)[nH]c2c1 [Example 106] | 39.8 nM |
